Test results: US7087375B1, “Method for determining the mechanism of HIV RT inhibitors” (priority 2000, dated 2006)
Several values for one entry are separate records, joined by “and”; a condition that tells them apart may be missing. Identical values can stand only once. Like-named read-outs stand apart in the source and are kept apart here.

What was measured:
Format in all cases: biochemical
[1] = biological target: T1, HIV-1 RT mutant 41/184/215 (Human immunodeficiency virus type 1 group M subtype B, UniProt P04585, M628L/M771V/T802Y); settings: 41/184/215 RT, AZT-TP assay, read-out: Km (BrdUTP)
T1 construct: The final RT products, in a heterodimeric form (p66/p51); made in house; host or cells: E. coli XL1-Blue (vector pKK233-2)

HIV-1 RT mutant 69S-AG = biological target: T2, HIV-1 RT mutant 69S-AG (Human immunodeficiency virus type 1 group M subtype B, UniProt P04585, INS655SA/T656G/T656S); settings: 69S-AG RT
T2 construct: The final RT products, in a heterodimeric form (p66/p51); made in house; host or cells: E. coli XL1-Blue (vector pKK233-2)

[2] = biological target: T3, HIV-1 RT mutant 41/67/70/215 (Human immunodeficiency virus type 1 group M subtype B, UniProt P04585, D654N/K657R/M628L/T802Y); settings: 41/67/70/215 RT
T3 construct: The final RT products, in a heterodimeric form (p66/p51); made in house; host or cells: E. coli XL1-Blue (vector pKK233-2)

HIV-1 RT mutant 69S-SG = biological target: T4, HIV-1 RT mutant 69S-SG (Human immunodeficiency virus type 1 group M subtype B, UniProt P04585, INS655SS/T656G/T656S); settings: 69S-SG RT
T4 construct: The final RT products, in a heterodimeric form (p66/p51); made in house; host or cells: E. coli XL1-Blue (vector pKK233-2)

[3] = biological target: T5, HIV-1 RT mutant 41/67/70/184/215 (Human immunodeficiency virus type 1 group M subtype B, UniProt P04585, D654N/K657R/M628L/M771V/T802Y); settings: 41/67/70/184/215 RT
T5 construct: The final RT products, in a heterodimeric form (p66/p51); made in house; host or cells: E. coli XL1-Blue (vector pKK233-2)

HIV-1 RT mutant 69S-SS = biological target: T6, HIV-1 RT mutant 69S-SS (Human immunodeficiency virus type 1 group M subtype B, UniProt P04585, INS655SS/T656S); settings: 69S-SS RT, AZT-TP assay, read-out: Km (BrdUTP)
T6 construct: The final RT products, in a heterodimeric form (p66/p51); made in house; host or cells: E. coli XL1-Blue (vector pKK233-2)

[4] = biological target: T7, HIV-1 RT wild type (HXB2) (Human immunodeficiency virus type 1 group M subtype B, UniProt P04585)
T7 construct: The final RT products, in a heterodimeric form (p66/p51); made in house; host or cells: E. coli XL1-Blue (vector pKK233-2)

HIV-1 RT mutant Q151M = biological target: T8, HIV-1 RT mutant Q151M (Human immunodeficiency virus type 1 group M subtype B, UniProt P04585, Q738M); settings: d4T-TP assay
T8 construct: The final RT products, in a heterodimeric form (p66/p51); made in house

[5] = biological target: T9, HIV-1 RT mutant 41/67/70/184/210/211/214/215 (Human immunodeficiency virus type 1 group M subtype B, UniProt P04585, D654N/K657R/L797W/L801F/M628L/M771V/R798K/T802Y); settings: 41/67/70/184/210/211/214/215 RT
T9 construct: The final RT products, in a heterodimeric form (p66/p51); made in house; host or cells: E. coli XL1-Blue (vector pKK233-2)

HIV-1 RT mutant V75T = biological target: T10, HIV-1 RT mutant V75T (Human immunodeficiency virus type 1 group M subtype B, UniProt P04585, V662T); settings: d4T-TP assay
T10 construct: The final RT products, in a heterodimeric form (p66/p51); made in house

HIV-1 RT mutant 41/215 = HIV-1 RT mutant 41/215 (Human immunodeficiency virus type 1 group M subtype B, UniProt P04585, M628L/T802Y); assay: RT inhibition assay (Lenti RT, polyrA/oligo(dT), BrdUTP); settings: 41/215 RT, AZT-TP assay
[6] = biological target: T11, HIV-1 RT mutant 41/69S-SS/215 (Human immunodeficiency virus type 1 group M subtype B, UniProt P04585, INS655SS/M628L/T656S/T802Y); settings: 41/69S-SS/215 RT, AZT-TP assay, read-out: Km (BrdUTP)
T11 construct: The final RT products, in a heterodimeric form (p66/p51); made in house; host or cells: E. coli XL1-Blue (vector pKK233-2)

[7] = AZT-TP assay, ATP 3.2 mM, read-out: Km (BrdUTP)
[8] = AZT-TP assay, without ATP, read-out: Km (BrdUTP)
[9] = d4T-TP assay, ATP 3.2 mM, read-out: Km
[10] = d4T-TP assay, without ATP, read-out: Km

bromo-deoxyuridine-triphosphate [BrdUTP]
Km ([1]; ATP 3.2 mM): 0.14 µM
Km ([1]; without ATP): 0.049 µM
Km (HIV-1 RT mutant 69S-AG; [7]): 0.28 µM
Km (HIV-1 RT mutant 69S-AG; [8]): 0.1 µM
Km (HIV-1 RT mutant 69S-AG; [9]): 0.126 µM
Km (HIV-1 RT mutant 69S-AG; [10]): 0.117 µM
Km ([2]; AZT-TP assay, ATP 3.2 mM + PPi 150 μM, read-out: Km (BrdUTP)): 0.202 µM
Km [2, 7]: 0.074 µM
Km ([2]; AZT-TP assay, ATP 6.0 mM, read-out: Km (BrdUTP)): 0.225 µM
Km ([2]; AZT-TP assay, ATP […], read-out: Km (BrdUTP)): 0.064 µM
Km ([2]; AZT-TP assay, GTP 0.5 mM, read-out: Km (BrdUTP)): 0.117 µM
Km ([2]; AZT-TP assay, PPi 150 μM, read-out: Km (BrdUTP)): 0.09 µM
Km ([2]; AZT-TP assay, no extra additions (without ATP), read-out: Km (BrdUTP)): 0.01 µM
Km ([2]; AZT-TP assay, nontreated pyrophosphatase ATP 3.2 mM (control), single experiment, read-out: Km (BrdUTP)): 0.044 µM
Km ([2]; AZT-TP assay, pyrophosphatase treated ATP 3.2 mM, single experiment, read-out: Km (BrdUTP)): 0.037 µM
Km [2, 9]: 0.126 µM
Km [2, 10]: 0.08 µM
Km (HIV-1 RT mutant 69S-SG; [7]): 0.36 µM
Km (HIV-1 RT mutant 69S-SG; [8]): 0.1 µM
Km (HIV-1 RT mutant 69S-SG; [9]): 0.228 µM
Km (HIV-1 RT mutant 69S-SG; [10]): 0.239 µM
Km [3, 7]: 0.38 µM
Km [3, 8]: 0.06 µM
Km [3, 9]: 0.152 µM
Km [3, 10]: 0.075 µM
Km (HIV-1 RT mutant 69S-SS; ATP 3.2 mM): 0.22 µM
Km (HIV-1 RT mutant 69S-SS; without ATP): 0.066 µM
Km ([4]; read-out: Km (BrdUTP)): 0.31 µM and 0.17 µM
Km ([4]; wild type HXB2 RT, AZT-TP assay, ATP 3.2 mM + PPi 150 μM, read-out: Km (BrdUTP)): 0.517 µM
Km ([4]; wild type HXB2 RT, AZT-TP assay, ATP 6.0 mM, read-out: Km (BrdUTP)): 0.81 µM
Km ([4]; wild type HXB2 RT, AZT-TP assay, ATP […], read-out: Km (BrdUTP)): 0.24 µM
Km ([4]; wild type HXB2 RT, AZT-TP assay, GTP 0.5 mM, read-out: Km (BrdUTP)): 0.324 µM
Km ([4]; wild type HXB2 RT, AZT-TP assay, PPi 150 μM, read-out: Km (BrdUTP)): 0.3 µM
Km ([4]; wild type HXB2 RT, d4T-TP assay, ATP 3.2 mM, read-out: Km): 0.162 µM
Km ([4]; wild type HXB2 RT, d4T-TP assay, without ATP, read-out: Km): 0.136 µM
Km (HIV-1 RT mutant Q151M; ATP 3.2 mM): 0.174 µM
Km (HIV-1 RT mutant Q151M; without ATP): 0.117 µM
Km [5, 7]: 0.58 µM
Km [5, 8]: 0.12 µM
Km [5, 9]: 0.249 µM
Km [5, 10]: 0.216 µM
Km (HIV-1 RT mutant V75T; ATP 3.2 mM): 0.165 µM
Km (HIV-1 RT mutant V75T; without ATP): 0.079 µM
Km (HIV-1 RT mutant 41/215; ATP 3.2 mM): 0.36 µM
Km (HIV-1 RT mutant 41/215; without ATP): 0.11 µM
Km ([6]; ATP 3.2 mM): 0.21 µM
Km ([6]; without ATP): 0.045 µM
